One test has as its target T1, IDH2 R140Q (Homo sapiens, UniProt P48735, R140Q).
T1 sequence (P48735 40-452 R140Q): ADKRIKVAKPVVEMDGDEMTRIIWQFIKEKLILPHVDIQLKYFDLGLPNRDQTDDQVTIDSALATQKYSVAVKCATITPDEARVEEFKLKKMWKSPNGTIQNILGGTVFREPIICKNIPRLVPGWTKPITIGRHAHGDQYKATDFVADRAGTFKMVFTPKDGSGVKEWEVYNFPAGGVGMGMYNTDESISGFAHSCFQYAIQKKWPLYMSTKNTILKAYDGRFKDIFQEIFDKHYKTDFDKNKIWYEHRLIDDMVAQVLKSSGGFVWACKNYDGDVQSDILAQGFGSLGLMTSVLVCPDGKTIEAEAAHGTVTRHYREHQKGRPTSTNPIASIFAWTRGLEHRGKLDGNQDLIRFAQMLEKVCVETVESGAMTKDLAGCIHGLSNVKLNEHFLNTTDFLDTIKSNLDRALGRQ
The test is described as follows: IDH2 R140Q enzymatic assay (cofactor depletion, similar format). The settings on record: read-out: Enz R140Q. Format: biochemical.

A further test concerns the target T2, IDH2 R172K (Homo sapiens, UniProt P48735, R172K).
T2 sequence (P48735 40-452 R172K): T1 sequence (P48735 40-452 R140Q) with Q101R, R133K
The experiment in a line: IDH2 R172K enzymatic assay (NADPH cofactor depletion, diaphorase/resazurin readout). The test is classed as biochemical. Particulars: read-out: Enz R172K. The method, boiled down:
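Test compounds are incubated with the mutant enzyme for one hour at ambient temperature. A substrate mix of 50 μM NADPH plus 6.3 mM α-KG initiates turnover, which proceeds for one hour. Diaphorase and resazurin then halt the reaction by depleting the cofactor and convert the remaining NADPH into a fluorescent signal.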
For orientation: Resazurin is reduced to fluorescent resorufin, in cell work by metabolically active cells.

Test [1] deals with U87MG pLVX-IDH2 R140Q-neo cells. The experiment in a line: U87MG pLVX-IDH2 R140Q-neo cell based assay, 2-HG in media by LC-MS at 48 hours. The method, boiled down: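 U87MG cells stably expressing IDH2 R140Q were seeded overnight, then exposed to compound at 0.2% final DMSO at 37 °C, 5% CO2. 2-HG in the medium was quantified by LC-MS at 48 h. Growth inhibition was read by CellTiter-Glo luminescence at 72 h.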

Positions count from the first letter of the chain named. Read-outs that look alike come from different tables or passages of the source.

For `CC(C)(C)Nc1nc(Nc2ccnc(C(C)(F)F)c2)nc(-c2cccc(C(F)(F)F)n2)n1` [Compound 567, N-tert-Butyl-N′-[2-(1,1-difluoro-ethyl)-pyridin-4-yl]-6-(6-trifluoromethyl-pyridin-2-yl)-[1,3,5]triazine-2,4-diamine], the IC50 on IDH2 R140Q is 0.1 to 1 µM; on IDH2 R172K it was less than 0.1 µM; in test [1] (Homo sapiens, U-87 MG), less than 0.1 µM.
In the case of `CC(C)(C)C(=O)Nc1nc(Nc2ccccc2)nc(-c2ccccc2)n1` [Compound 183, N-(4-phenyl-6-(phenylamino)-1,3,5-triazin-2-yl)pivalamide], the IC50 at IDH2 R140Q is less than 0.1 µM; on IDH2 R172K it was 0.1 to 1 µM; in test [1] (Homo sapiens, U-87 MG), less than 0.1 µM.
In the case of `CC(C)Nc1nc(Nc2ccnc(C3(O)CC3)c2)nc(-c2cccc(C(F)(F)F)n2)n1` [Compound 674, 1-{4-[4-Isopropylamino-6-(6-trifluoromethyl-pyridin-2-yl)-[1,3,5]triazin-2-ylamino]-pyridin-2-yl}-cyclopropanol], the IC50 on IDH2 R140Q is 0.1 to 1 µM; at IDH2 R172K, 0.1 to 1 µM; in test [1] (Homo sapiens, U-87 MG) it was less than 0.1 µM.
As for `CC(C)Nc1nc(Nc2cccc(F)c2)nc(-c2cccc(N)n2)n1` [Compound 492, 6-(6-aminopyridin-2-yl)-N2-(3-fluorophenyl)-N4-isopropyl-1,3,5-triazine-2,4-diamine], the IC50 is 0.1 to 1 µM on IDH2 R140Q; less than 0.1 µM at IDH2 R172K; less than 0.1 µM in test [1] (Homo sapiens, U-87 MG).
Regarding `CC(C)(O)CNc1nc(Nc2ccnc(C(C)(C)C#N)c2)nc(-c2cccc(C(F)(F)F)n2)n1` [Compound 678, 2-{4-[4-(2-Hydroxy-2-methyl-propylamino)-6-(6-trifluoromethyl-pyridin-2-yl)-[1,3,5]triazin-2-ylamino]-pyridin-2-yl}-2-methyl-propionitrile], the IC50 is 1 to 10 µM on IDH2 R140Q; 0.1 to 1 µM at IDH2 R172K; less than 0.1 µM in test [1] (Homo sapiens, U-87 MG).
For `Nc1cccc(-c2nc(NCC(F)(F)F)nc(Nc3cc(F)cc(F)c3)n2)n1` [Compound 491, 6-(6-aminopyridin-2-yl)-N2-(3,5-difluorophenyl)-N4-(2,2,2-trifluoroethyl)-1,3,5-triazine-2,4-diamine], in that order: 0.1 to 1 µM, less than 0.1 µM and less than 0.1 µM.
The corresponding values for `CC(C)Nc1nc(Nc2ccc(F)nc2)nc(-c2cccc(N)n2)n1` [Compound 462, 6-(6-Amino-pyridin-2-yl)-N-(6-fluoro-pyridin-3-yl)-N′-isopropyl-[1,3,5]triazine-2,4-diamine] are 0.1 to 1 µM, 0.1 to 1 µM and 0.1 to 1 µM.
The corresponding values for `CC1(Nc2nc(Nc3ccnc(C4CC4)c3)nc(-c3cccc(C(F)(F)F)n3)n2)CC1` [Compound 565, N-(2-Cyclopropyl-pyridin-4-yl)-N′-(1-methyl-cyclopropyl)-6-(6-trifluoromethyl-pyridin-2-yl)-[1,3,5]triazine-2,4-diamine] are 0.1 to 1 µM, less than 0.1 µM and less than 0.1 µM.
On to `OC1CC1Nc1nc(Nc2ccnc(C(F)(F)F)c2)nc(-c2cccc(C(F)(F)F)n2)n1` (stereo not drawn) [Compound 569, 2-[4-(6-Trifluoromethyl-pyridin-2-yl)-6-(2-trifluoromethyl-pyridin-4-ylamino)-[1,3,5]triazin-2-ylamino]-cyclopropanol], for which the IC50 (at IDH2 R140Q; at IDH2 R172K; in test [1]) was 0.1 to 1 µM each time.
Turning to `Cc1ccccc1Nc1nc(NC(C)C)nc(-c2ccccc2)n1` [Compound 147], the IC50 at IDH2 R140Q fell in the range of 0.1 to 1 µM; at IDH2 R172K it was 1 to 10 µM; in test [1] (Homo sapiens, U-87 MG) it was 0.1 to 1 µM.
On to `CC(C)Nc1nc(Nc2cccc(C(C)(C)O)c2)nc(-c2cccc(C(F)(F)F)n2)n1` [Compound 542, 2-{3-[4-Isopropylamino-6-(6-trifluoromethyl-pyridin-2-yl)-[1,3,5]triazin-2-ylamino]-phenyl}-propan-2-ol], for which the IC50 on IDH2 R140Q was 0.1 to 1 µM; at IDH2 R172K, less than 0.1 µM; in test [1] (Homo sapiens, U-87 MG), less than 0.1 µM.
As for `CC(C)Nc1nc(Nc2ccnc(C(C)(F)F)c2)nc(-c2cccc(Cl)n2)n1` [Compound 513, 6-(6-Chloro-pyridin-2-yl)-N-[2-(1,1-difluoro-ethyl)-pyridin-4-yl]-N′-isopropyl-[1,3,5]triazine-2,4-diamine], the IC50 is 1 to 10 µM at IDH2 R140Q; 0.1 to 1 µM on IDH2 R172K; less than 0.1 µM in test [1] (Homo sapiens, U-87 MG).
For `CC(C)(CO)CNc1nc(Nc2ccnc(C(F)(F)F)c2)nc(-c2cccc(C(F)(F)F)n2)n1` [Compound 530, 2,2-Dimethyl-3-[4-(6-trifluoromethyl-pyridin-2-yl)-6-(2-trifluoromethyl-pyridin-4-ylamino)-[1,3,5]triazin-2-ylamino]-propan-1-ol], in that order: 0.1 to 1 µM, 0.1 to 1 µM and less than 0.1 µM.
The corresponding values for `CC(C)Nc1nc(Nc2ccccc2)nc(-c2cccc(Cl)c2)n1` [Compound 158] are less than 0.1 µM, 0.1 to 1 µM and 0.1 to 1 µM.
The corresponding values for `CC(C)Nc1nc(Nc2ccnc(C(F)(F)F)c2)nc(-c2cccc(O)c2F)n1` [Compound 633, 2-Fluoro-3-[4-isopropylamino-6-(2-trifluoromethyl-pyridin-4-ylamino)-[1,3,5]triazin-2-yl]-phenol] are 0.1 to 1 µM, less than 0.1 µM and less than 0.1 µM.
On to `COCC(C)Nc1nc(Nc2ccccc2)nc(-c2ccccc2)n1` (stereo not drawn) [Compound 269, N^2-(1-methoxypropan-2-yl)-N^4,6-diphenyl-1,3,5-triazine-2,4-diamine], for which the IC50 was less than 0.1 µM at IDH2 R140Q; 0.1 to 1 µM on IDH2 R172K; less than 0.1 µM in test [1] (Homo sapiens, U-87 MG).
As to `CC(C)(O)CNc1nc(Nc2ccnc(C(C)(F)F)c2)nc(-c2cccc(C(C)(F)F)n2)n1` [Compound 605, 1-((4-(6-(1,1-difluoroethyl)pyridin-2-yl)-6-((2-(1,1-difluoroethyl)pyridin-4-yl)amino)-1,3,5-triazin-2-yl)amino)-2-methylpropan-2-ol], the IC50 on IDH2 R140Q is 0.1 to 1 µM; at IDH2 R172K, 0.1 to 1 µM; in test [1] (Homo sapiens, U-87 MG) it was less than 0.1 µM.
As for `Fc1ccc(Nc2nc(NC3[C@H]4COC[C@@H]34)nc(-c3ccccc3F)n2)cn1` (stereo partly drawn) [Compound 637, 6-(2-Fluoro-phenyl)-N-(6-fluoro-pyridin-3-yl)-N′-(3-oxa-bicyclo[3.1.0]hex-6-yl)-[1,3,5]triazine-2,4-diamine], the IC50 is 0.1 to 1 µM on IDH2 R140Q; 0.1 to 1 µM on IDH2 R172K; less than 0.1 µM in test [1] (Homo sapiens, U-87 MG).
With `CC(Nc1nc(Nc2ccncc2)nc(-c2ccccc2)n1)C1CC1` (stereo not drawn) [Compound 257, N^2-(1-cyclopropylethyl)-6-phenyl-N^4-(pyridin-4-yl)-1,3,5-triazine-2,4-diamine], the IC50 at IDH2 R140Q is less than 0.1 µM; on IDH2 R172K it was 0.1 to 1 µM; in test [1] (Homo sapiens, U-87 MG), 0.1 to 1 µM.
For `Cc1nc(-c2nc(Nc3cc(F)cc(F)c3)nc(NC(C)C)n2)co1` [Compound 476, N-(3,5-Difluoro-phenyl)-N′-isopropyl-6-(2-methyl-oxazol-4-yl)-[1,3,5]triazine-2,4-diamine], the IC50 on IDH2 R140Q is less than 0.1 µM; at IDH2 R172K it was 0.1 to 1 µM; in test [1] (Homo sapiens, U-87 MG), less than 0.1 µM.
As to `CC(C)Nc1nc(Nc2cc(F)cc(S(C)(=O)=O)c2)nc(-c2cccc(C(C)(F)F)n2)n1` [Compound 613, 6-(6-(1,1-difluoroethyl)pyridin-2-yl)-N2-(3-fluoro-5-(methylsulfonyl)phenyl)-N4-isopropyl-1,3,5-triazine-2,4-diamine], the IC50 was 0.1 to 1 µM at IDH2 R140Q; less than 0.1 µM at IDH2 R172K; less than 0.1 µM in test [1] (Homo sapiens, U-87 MG).
As for `CC(C)(O)CNc1nc(Nc2cnc(F)c(Cl)c2)nc(-c2cccc(C(F)(F)F)n2)n1` [Compound 670, 1-[4-(5-Chloro-6-fluoro-pyridin-3-ylamino)-6-(6-trifluoromethyl-pyridin-2-yl)-[1,3,5]triazin-2-ylamino]-2-methyl-propan-2-ol], the IC50 is 0.1 to 1 µM at IDH2 R140Q; 0.1 to 1 µM at IDH2 R172K; less than 0.1 µM in test [1] (Homo sapiens, U-87 MG).
Consider `CC1(C(=O)Nc2nc(Nc3ccccc3)nc(-c3ccccc3)n2)CC1` [Compound 245], for which the IC50 on IDH2 R140Q is less than 0.1 µM; at IDH2 R172K, 0.1 to 1 µM; in test [1] (Homo sapiens, U-87 MG) it was 0.1 to 1 µM.

The values are drawn from patent US9512107B2, “Therapeutically active compositions and their methods of use” (Agios Pharmaceuticals, Inc., priority 2012, dated 2016).
